Each structure is given as a SMILES string. “Also recorded” adds a separate entry of the source. Bounds are passed on as bounds.

In data set [1] the target is NTS1R (Homo sapiens, UniProt P30989). As to the kind of experiment: High-content imaging (HCI) association and dissociation kinetics, adherent CHO-hNTS1R cells. The following applies: for koff: 23 °C, read-out: koff [min^–1] (converted); for kon: calculated from kobs, koff and ligand concentration, read-out: kon [min^–1 nM^–1] (converted). It counts as binding. How it is done:
CHO-hNTS1R or HT-29 cells were seeded one day prior to the experiment into the inner 60 wells of a black clear-bottom 96-well plate (Greiner 655090, Greiner Bio-One) at a concentration of 25,000 cells/well and 35,000 cells/well, respectively. On the day of the assay, the medium was removed by suction and the cells were washed with DPBS1 (50 μL). After this step, DPBS1 (180 or 200 μL) containing the nuclear dye Hoechst H33342 (2 μg/mL) was added. This solution also contained the fluorescent ligand (kinetic studies, competition binding experiments), or the fluorescent ligand was added separately (saturation binding experiments). In the case of competition binding experiments, the nonlabeled receptor ligands were also added separately (details given below). All samples were incubated at 23 ± 1 °C in the dark under gentle shaking (incubation times are specified below). The final volume per well was 200 μL. Shortly before subjecting the plate to the plate reader for image acquisition, the liquid was removed by suction and DPBS1 (100 μL) was added. Images were acquired using an IX Micro plate reader (Molecular Devices, Sunnyvale, CA) using a 20× Plan Fluor ELWD objective, a xenon lamp light source and DAPI and TRITC excitation/emission filter cubes for imaging nuclear and fluorescent ligand staining, respectively. […] Two sites/well were measured throughout. Images were analyzed by granularity analysis (2–3 μm diameter granules; MetaXpress 5.3, Molecular Devices, San Diego, CA) and the integrated intensity (pixel intensity × granule area) per cell was used as the raw measurement of fluorescent ligand binding. […]
After the initial washing step, 200 μL of DPBS1 containing the fluorescent ligand 13 or 18 (2.5 nM) and DAPI were added to determine total binding. […] The samples of the different time points were prepared in reversed order (longest incubation time first, shortest incubation time last) so that the cells of all samples could be washed and measured approximately at the same time (note: the measurement time for 60 wells was <5 min). […] Specific binding data, obtained by subtracting triplicate mean values of unspecific binding from triplicate mean values of total binding, were plotted against the time and analyzed by a three-parameter equation describing an exponential rise to a maximum (one-phase association, Y0 constrained to zero, GraphPad Prism 5) to yield the observed association rate constant kobs. […]
After initial washing of the cells, 200 μL of DPBS1 containing the fluorescent ligand 13 or 18 (2.5 nM) and DAPI were added to the wells (determination of total binding). […] The plate was directly subjected to the plate reader (no washing step). […]

Data set [2] can be described thus: Chemical stability in PBS (pH 7.4). It counts as physicochemical. The following applies: PBS pH 7.4, room temperature, up to 48 h, RP-HPLC. How it is done:
The chemical stability of peptides 13 and 18 was investigated in PBS (adjusted to pH 7.4) at 22 °C in the dark. The incubation was started by the addition of 15 μL of a 1 mM stock solution (solvent: DMSO) to 135 μL of PBS to yield a concentration of 100 μM. After periods of 0, 6, 24, and 48 h, an aliquot (25 μL) was removed and added to 25 μL of acetonitrile/0.04% aqueous TFA 1:9 v/v to obtain a peptide solution with a concentration of 50 μM. 20 μL of this solution were subjected to analytical RP-HPLC analysis using the same system and conditions as described under Analytical HPLC with the following gradient: 0–14 min: acetonitrile/0.04% aqueous TFA 10:90–30:70, 14–15 min: 30:70–95:5, 15–20 min: 95:5 (isocratic). A 1:1 mixture of PBS and acetonitrile/0.04% aqueous TFA 1:9 v/v (20 μL) was analyzed to obtain the blank chromatogram.

The nature of data set [3]: Stability in human plasma/PBS 1:2 v/v. In kind it is in vitro ADME. The settings on record: for % intact compound in plasma: 37 °C; for % intact compound in plasma / remaining at 24 h, 80 μM: 24 h. The method, then: The proteolytic stabilities of 13 and 18 were investigated in human blood plasma/PBS (136.9 mM NaCl, 2.68 mM KCl, 5.62 mM Na2HPO4, 1.09 mM NaH2PO4, and 1.47 mM KH2PO4, pH 7.4) 1:2 v/v according to a described procedure[38] with the following modifications: 5 mM stock solutions in EtOH/10 mM aqueous HCl 1:1 v/v were used for the addition of the peptides to plasma/PBS 1:2 v/v. As the RP-HPLC purity of 1-methyl-D-Trp, used as internal standard (IS), was <95%, the compound was purified by preparative HPLC to give a purity of >99%. The concentration of the peptides in plasma/PBS 1:2 v/v was 40 μM (recovery determination) or 80 μM (stability tests). Samples were analyzed using the same RP-HPLC system and conditions as described under Analytical HPLC with the following gradient: 0–6 min: acetonitrile/0.04% aqueous TFA 10:90–21:79, 6–12 min: 21:79–40:60, 12–13 min: 40:60–95:5, 13–16 min: 95:5 (isocratic). Data analysis was based on UV detection at 220 nm. Reference samples, representing 100% recovery, were prepared in quadruplicate. Recovery ratios were obtained by dividing the recovery of the peptide by the recovery of IS for each individual sample (n = 4). The obtained recoveries and the recovery ratios are summarized in Table S2, Supporting Information.

Setting [4] is: human blood plasma/PBS 1:2 v/v, pH 7.4, 37 °C, read-out: % intact compound in plasma.

Sequence of NTS1R (P30989 whole entry): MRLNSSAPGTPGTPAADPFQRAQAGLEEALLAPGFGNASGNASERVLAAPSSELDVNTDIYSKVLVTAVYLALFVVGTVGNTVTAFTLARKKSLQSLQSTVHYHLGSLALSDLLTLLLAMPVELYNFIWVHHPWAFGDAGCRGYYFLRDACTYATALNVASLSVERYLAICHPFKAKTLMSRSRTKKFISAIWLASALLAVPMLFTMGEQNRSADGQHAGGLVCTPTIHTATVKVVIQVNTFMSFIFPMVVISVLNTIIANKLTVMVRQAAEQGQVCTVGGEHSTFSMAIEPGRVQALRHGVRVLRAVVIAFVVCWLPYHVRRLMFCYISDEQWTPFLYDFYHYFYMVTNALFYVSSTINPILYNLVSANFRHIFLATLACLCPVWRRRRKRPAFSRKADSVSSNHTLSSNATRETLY

Turning to `CCC(=O)NCCCCNC(=O)NC(=N)NCCC[C@H](NC(=O)[C@@H]1CCCN1C(=O)[C@@H](NC(=O)CCc1cn(CCCNC(=O)CCC#Cc2ccc3c(c2)C(C)(C)C2=C4C=C5C6=[N+](CCC5OC4CCN23)c2ccc(S(=O)(=O)[O-])cc2C6(C)C)nn1)C1CCNCC1)C(=O)N[C@@H](CCCNC(=N)N)C(=O)N1CCC[C@H]1C(=O)N[C@H](C(=O)N[C@H](C(=O)N[C@@H](CC(C)C)C(=O)O)[C@@H](C)CC)C(C)(C)c1ccc(O)cc1` (stereo partly drawn) [Compound 18, N^α-(3-(N-(1-(8-Sulfonato-5,5,27,27-tetramethyl-16-oxa-20-aza-12-azoniaheptacyclo[15.11.0.03,15.04,12.06,11.020,28.021,26]octacosa-1(28),2,4(12),6(11),7,9,21(26),22,24-nonaen-24-yl)-5-oxopentyn-5-yl)-1-aminoprop-3-yl-1H-1,2,3-triazol-4-yl)propanoyl)-2-(piperidin-4-yl)-Gly-Pro-N^ω-[(4-(N-propanoyl)aminobutyl)aminocarbonyl]Arg-Arg-Pro-β,β-dimethyl-L-Tyr-Ile-Leu Tris(hydrotrifluoroacetate)], in data set [1], the koff is 0.00085 s⁻¹ and the kon was 135000 M⁻¹ s⁻¹. The “chemical stability in PBS” value in data set [2] is given as “highly stable over 48 h; also recorded: no decomposition”. In addition, the “% intact compound in plasma” value in data set [3] was above 50%. In data set [3] (setting [4]), the remaining at 2 h, 80 μM came to 95 ± 6%; the remaining at 6 h, 80 μM was 90 ± 6%; the remaining at 24 h, 80 μM came to 82 ± 4%; the remaining at 48 h, 80 μM is 52 ± 4%.

With `CCC(=O)NCCCCNC(=O)N=C(N)NCCC[C@H](NC(=O)[C@@H]1CCCN1C(=O)[C@@H](NC(=O)CCc1cn(CCCNC(=O)c2ccc(-c3c4ccc(=[N+](C)C)cc-4oc4cc(N(C)C)ccc34)c(C(=O)[O-])c2)nn1)C1CCNCC1)C(=O)N[C@@H](CCCNC(=N)N)C(=O)N1CCC[C@H]1C(=O)N[C@@H](Cc1ccc(O)cc1)C(=O)N[C@H](C(=O)N[C@@H](CC(C)C)C(=O)O)[C@@H](C)CC` [Compound 13, N^α-(3-(1-N-((1-Carboxylato-2-(6-(dimethylamino)-3-(dimethyliminio)-3H-xanthen-9-yl)phen-5-yl)1-oxomethyl)aminoprop-3-yl-1H-1,2,3-triazol-4-yl)propanoyl)-2-(piperidin-4-yl)-Gly-Pro-N^ω-[(4-(N-propanoyl)aminobutyl)aminocarbonyl]Arg-Arg-Pro-Tyr-Ile-Leu Tris(hydrotrifluoroacetate)], in data set [1], the koff was 0.000733 s⁻¹ and the kon was 267000 M⁻¹ s⁻¹. Also, the “chemical stability in PBS” value in data set [2] was “high stability; also recorded: very slow degradation observable after 24 h”. Also, the “% intact compound in plasma” value in data set [3] is reported as above 50%. In addition, in data set [3] (human blood plasma/PBS 1:2 v/v, pH 7.4, 37 °C, 30 min, read-out: % intact compound in plasma), the remaining at 0.5 h, 80 μM was above 99%. In addition, in data set [3] (setting [4]), the remaining at 2 h, 80 μM was above 99%; the remaining at 6 h, 80 μM was above 99%; the remaining at 24 h, 80 μM was found to be 86 ± 4%; the remaining at 48 h, 80 μM was 58 ± 5%.

Values taken from PMC11440508, “Dually Labeled Neurotensin NTS1R Ligands for Probing Radiochemical and Fluorescence-Based Binding Assays” (Journal of Medicinal Chemistry, 2024).
